Results reported in BindingDB's records for doi:10.1021/jm050004k (Karo Bio, 2005).

Key:
[1] = target: T1, Thyroid hormone receptor beta (Homo sapiens, UniProt P10828); test: TRbeta-Binding Assay and Thyroid Response Element (TRAFbeta1) Reporter Assay.; conditions: pH 7; 4 °C
T1 sequence (P10828 whole entry): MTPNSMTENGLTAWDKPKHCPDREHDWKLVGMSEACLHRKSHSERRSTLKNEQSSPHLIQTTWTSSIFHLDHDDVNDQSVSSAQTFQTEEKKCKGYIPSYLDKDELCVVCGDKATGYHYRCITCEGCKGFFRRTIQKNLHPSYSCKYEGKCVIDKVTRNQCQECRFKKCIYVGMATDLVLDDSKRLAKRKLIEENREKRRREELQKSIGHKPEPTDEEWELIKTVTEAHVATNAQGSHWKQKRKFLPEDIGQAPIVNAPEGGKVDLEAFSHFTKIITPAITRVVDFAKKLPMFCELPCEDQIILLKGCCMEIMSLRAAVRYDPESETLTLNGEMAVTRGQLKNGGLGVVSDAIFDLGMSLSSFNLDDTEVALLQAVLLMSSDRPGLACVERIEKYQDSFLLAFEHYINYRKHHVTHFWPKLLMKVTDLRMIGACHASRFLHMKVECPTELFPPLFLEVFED
Source text: IC50 is the concentration of each compound required to inhibit 50% binding of 125I-T3 to hTRbeta. EC50 is the concentration of compound required to inhibit 50% of T3-induced TRbeta-activation in CHOK1 cells stably transfected with hTRbeta using alkaline phosphatase reporter assay.

[2] = target: T2, Thyroid hormone receptor alpha (Homo sapiens, UniProt P10827); test: TRalpha-Binding Assay and Thyroid Response Element (TRAFalpha1) Reporter Assay.; conditions: pH 7; 4 °C
T2 sequence (P10827 whole entry): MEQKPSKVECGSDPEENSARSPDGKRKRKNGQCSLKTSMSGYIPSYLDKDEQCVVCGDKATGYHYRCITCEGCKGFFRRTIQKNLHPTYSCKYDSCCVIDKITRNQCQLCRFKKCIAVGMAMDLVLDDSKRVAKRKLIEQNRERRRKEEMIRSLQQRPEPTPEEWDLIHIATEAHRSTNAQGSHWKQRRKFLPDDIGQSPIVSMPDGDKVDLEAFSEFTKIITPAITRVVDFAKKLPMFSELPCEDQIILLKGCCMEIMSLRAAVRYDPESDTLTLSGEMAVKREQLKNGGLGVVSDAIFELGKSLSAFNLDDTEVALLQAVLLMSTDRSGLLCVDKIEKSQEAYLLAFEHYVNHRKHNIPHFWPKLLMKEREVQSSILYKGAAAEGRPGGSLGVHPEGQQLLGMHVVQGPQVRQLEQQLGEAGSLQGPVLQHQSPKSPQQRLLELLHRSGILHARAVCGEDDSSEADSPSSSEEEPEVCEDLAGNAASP
Source text: IIC50 is the concentration of each compound required to inhibit 50% binding of 125I-T3 to hTRalpha. EC50 is the concentration of compound required to inhibit 50% of T3-induced TRalpha-activation in CHOK1 cells stably transfected with hTRalpha using alkaline phosphatase reporter assay.

| SMILES | EC50 [1] [nM] | EC50 [2] [nM] | IC50 [1] [nM] |
| --- | --- | --- | --- |
| CCC(CC)COc1c(Br)cc(CC(=O)O)cc1Br [2-[3,5-dibromo-4-(2-ethylbutoxy)phenyl]acetic acid] | 0.7 | 0.82 |  |
| CC(C)CCOc1c(Br)cc(CC(=O)O)cc1Br [2-[3,5-dibromo-4-(3-methylbutoxy)phenyl]acetic acid] |  |  | 1800 |
| O=C(O)Cc1cc(Br)c(OCC2CCCCC2)c(Br)c1 [2-[3,5-dibromo-4-(cyclohexylmethoxy)phenyl]acetic acid] | 0.52 | 0.42 |  |
| CCCCCCOc1c(Br)cc(CC(=O)O)cc1Br [2-[3,5-dibromo-4-(hexyloxy)phenyl]acetic acid] | 0.8 | 0.7 |  |
| CCCCCCOc1c(Br)cc(CCC(=O)O)cc1Br [3-[3,5-dibromo-4-(hexyloxy)phenyl]propanoic acid] | 1 | 0.6 |  |
| O=C(O)CCc1cc(Br)c(OCC2CCCCC2)c(Br)c1 [JMC496635 Compound 9] | 0.12 | 0.53 |  |
